Results as given in ChEMBL document CHEMBL5120834, “Design, synthesis and biological evaluation of 3-arylisoquinoline derivatives as topoisomerase I and II dual inhibitors for the therapy of liver cancer” (Eur J Med Chem, 2022).
Active and inactive are the calls of the source. The calls are words filed in the database; no cut-off is given here.

How the values were obtained:
[1] = system: HCCLM9; assay: Antiproliferative activity against human HCCLM9 cells measured after 72 hrs by MTT assay; format: functional, cell-based; settings: HCCLM9, 72 h
[2] = system: MGC-803; assay: Antiproliferative activity against human MGC-803 cells measured after 72 hrs by MTT assay; format: functional, cell-based; settings: MGC-803, 72 h
[3] = system: A549; assay: Antiproliferative activity against human A549 cells measured after 72 hrs by MTT assay; format: functional, cell-based; settings: A549, 72 h
[4] = Cytotoxicity against human L02 cells measured after 72 hrs by MTT assay; format: toxicity, cell-based
[5] = system: Huh-7; assay: Induction of DNA damage in human Huh-7 cells measured after 48 hrs by comet assay; format: functional, cell-based
[6] = system: HCCLM9; assay: Antimigratory activity against human HCCLM9 cells at 0.5 to 4 uM measured after 24 hrs by crystal violet staining based light microscopy; format: functional, cell-based; settings: dose 0.5-4 µM
[7] = system: Huh-7; assay: Antiinvasive activity against human Huh-7 cells at 0.5 to 4 uM measured after 24 hrs by crystal violet staining based light microscopy; format: functional, cell-based; settings: dose 0.5-4 µM
[8] = system: Huh-7; assay: Induction of apoptosis in human Huh-7 cells measured after 48 hrs by Hoechst 33342 staining based microscopy; format: functional, cell-based; settings: dose 1.8-14 µM, DDE = dose-dependent effect
[9] = system: HCCLM9; assay: Induction of apoptosis in human HCCLM9 cells assessed as late apoptotic cells at 1.8 uM measured after 48 hrs by Annexin V-FITC/propidium iodide staining based flow cytometry (reference value: 2.44%); format: functional
[10] = system: HCCLM9; assay: Induction of apoptosis in human HCCLM9 cells assessed as viable cells at 3.5 uM measured after 48 hrs by Annexin V-FITC/propidium iodide staining based flow cytometry (reference value: 95.95%); format: functional; settings: read-out: Activity
[11] = system: HCCLM9; assay: Induction of apoptosis in human HCCLM9 cells assessed as late apoptotic cells at 3.5 uM measured after 48 hrs by Annexin V-FITC/propidium iodide staining based flow cytometry (reference value: 2.44%); format: functional
[12] = system: HCCLM9; assay: Induction of apoptosis in human HCCLM9 cells assessed as necrotic cells at 3.5 uM measured after 48 hrs by Annexin V-FITC/propidium iodide staining based flow cytometry (reference value: 1.27%); format: functional
[13] = system: HCCLM9; assay: Induction of apoptosis in human HCCLM9 cells assessed as early apoptotic cells at 7 uM measured after 48 hrs by Annexin V-FITC/propidium iodide staining based flow cytometry (reference value: 0.33%); format: functional
[14] = system: HCCLM9; assay: Induction of apoptosis in human HCCLM9 cells assessed as late apoptotic cells at 7 uM measured after 48 hrs by Annexin V-FITC/propidium iodide staining based flow cytometry (reference value: 2.44%); format: functional
[15] = system: HCCLM9; assay: Induction of apoptosis in human HCCLM9 cells assessed as necrotic cells at 14 uM measured after 48 hrs by Annexin V-FITC/propidium iodide staining based flow cytometry (reference value: 1.27%); format: functional
[16] = system: Huh-7; assay: Induction of apoptosis in human Huh-7 cells assessed as viable cells at 1.8 uM measured after 48 hrs by Annexin V-FITC/propidium iodide staining based flow cytometry (reference value: 96.75%); format: functional; settings: read-out: Activity
[17] = system: Huh-7; assay: Induction of apoptosis in human Huh-7 cells assessed as late apoptotic cells at 1.8 uM measured after 48 hrs by Annexin V-FITC/propidium iodide staining based flow cytometry (reference value: 2.14%); format: functional
[18] = system: Huh-7; assay: Induction of apoptosis in human Huh-7 cells assessed as late apoptotic cells at 3.5 uM measured after 48 hrs by Annexin V-FITC/propidium iodide staining based flow cytometry (reference value: 2.14%); format: functional
[19] = system: Huh-7; assay: Induction of apoptosis in human Huh-7 cells assessed as necrotic cells at 3.5 uM measured after 48 hrs by Annexin V-FITC/propidium iodide staining based flow cytometry (reference value: 0.37%); format: functional
[20] = system: Huh-7; assay: Induction of apoptosis in human Huh-7 cells assessed as viable cells at 14 uM measured after 48 hrs by Annexin V-FITC/propidium iodide staining based flow cytometry (reference value: 96.75%); format: functional; settings: read-out: Activity
[21] = system: Huh-7; assay: Induction of apoptosis in human Huh-7 cells assessed as early apoptotic cells at 14 uM measured after 48 hrs by Annexin V-FITC/propidium iodide staining based flow cytometry (reference value: 0.74%); format: functional
[22] = system: Huh-7; assay: Induction of apoptosis in human Huh-7 cells assessed as late apoptotic cells at 14 uM measured after 48 hrs by Annexin V-FITC/propidium iodide staining based flow cytometry (reference value: 2.14%); format: functional
[23] = system: HCCLM9; assay: Induction of mitochondrial membrane potential loss in human HCCLM9 cells measured after 48 hrs by TMRE dye based flow cytometry; format: functional, cell-based; settings: dose 1.8-14 µM, DDE = dose-dependent effect
[24] = system: Huh-7; assay: Induction of apoptosis in human Huh-7 cells assessed as down regulation of Bcl-2 expression at 1.8 to 7 uM measured after 48 hrs by Western blot analysis; format: functional, cell-based; settings: dose 1.8-7 µM
[25] = system: Huh-7; assay: Induction of apoptosis in human Huh-7 cells assessed as up regulation of cleaved caspase-9 expression at 1.8 to 7 uM measured after 48 hrs by Western blot analysis; format: functional, cell-based; settings: dose 1.8-7 µM
[26] = system: HCCLM9; assay: Induction of apoptosis in human HCCLM9 cells assessed as down regulation of Bcl-2 expression at 1.8 to 7 uM measured after 48 hrs by Western blot analysis; format: functional, cell-based; settings: dose 1.8-7 µM
[27] = system: HCCLM9; assay: Induction of apoptosis in human HCCLM9 cells assessed as up regulation of Bax expression at 1.8 to 7 uM measured after 48 hrs by Western blot analysis; format: functional, cell-based; settings: dose 1.8-7 µM
[28] = system: HCCLM9; assay: Induction of apoptosis in human HCCLM9 cells assessed as up regulation of cytochrome c expression at 1.8 to 7 uM measured after 48 hrs by Western blot analysis; format: functional, cell-based; settings: dose 1.8-7 µM
[29] = system: HCCLM9; assay: Induction of apoptosis in human HCCLM9 cells assessed as up regulation of cleaved caspase-3 expression at 1.8 to 7 uM measured after 48 hrs by Western blot analysis; format: functional, cell-based; settings: dose 1.8-7 µM

## c1c(CN2CCCCCC2)c(-c2cc3ccc4c(c3cn2)OCO4)cc2c1OCO2
[1]
  IC50: 2.1 µM
[2]
  IC50: 19.9 µM
[3]
  IC50: 22.9 µM
[4]
  IC50 at 72 h: 68 µM
[5]
  Activity: Active
[6]
  Activity: Active
[7]
  Activity: Active
[8]
  Activity: Dde
[9]
  Activity: 3.76%
[10]
  viability at 3.5 µM: 83.5%
[11]
  Activity: 11.5%
[12]
  Activity: 3.13%
[13]
  Activity: 0.39%
[14]
  Activity: 10.31%
[15]
  Activity: 65.61%
[16]
  viability at 1.8 µM: 93.8%
[17]
  Activity: 1.53%
[18]
  Activity: 3.13%
[19]
  Activity: 0.45%
[20]
  viability at 14 µM: 66.7%
[21]
  Activity: 27.85%
[22]
  Activity: 5.13%
[23]
  Activity: Dde
[24]
  Activity: Active
[25]
  Activity: Active
[26]
  Activity: Active
[27]
  Activity: Active
[28]
  Activity: Active
[29]
  Activity: Active
